From patent publication US5210089A, “D-rhamnono-1,5-lactone” (Monsanto Company, priority 1992, dated 1993)
“Also recorded” adds a separate entry of the source.

How the values were obtained:
Type in all cases: biochemical
Lysosomal α-fucosidase = target: T1, Lysosomal α-fucosidase (Homo sapiens, UniProt P04066); test: Human liver glycosidase assay, lysosomal α-fucosidase; settings: for inhibition at 1000 µM: 1 mM compound, human liver, read-out: Inhibition (%) at 1 mM, lysosomal α-fucosidase
T1 construct: human liver extracts; from tissue; host or cells: human liver extracts
T1 sequence (P04066 32-466): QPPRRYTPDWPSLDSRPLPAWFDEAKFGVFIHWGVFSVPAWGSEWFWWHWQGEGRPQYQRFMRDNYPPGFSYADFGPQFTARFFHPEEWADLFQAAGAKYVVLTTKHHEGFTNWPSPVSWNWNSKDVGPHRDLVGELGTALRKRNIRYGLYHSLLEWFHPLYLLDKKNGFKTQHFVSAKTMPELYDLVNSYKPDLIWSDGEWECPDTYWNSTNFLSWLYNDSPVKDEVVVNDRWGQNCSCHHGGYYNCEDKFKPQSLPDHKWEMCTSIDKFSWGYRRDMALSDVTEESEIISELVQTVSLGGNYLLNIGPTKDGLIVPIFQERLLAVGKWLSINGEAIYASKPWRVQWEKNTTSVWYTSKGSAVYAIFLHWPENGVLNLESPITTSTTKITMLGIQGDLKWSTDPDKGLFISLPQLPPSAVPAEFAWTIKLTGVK
Protocol: (§1) Melting points were recorded on a Kofler hot block. Proton nuclear magnetic resonance (δH) spectra were recorded on Varian Gemini 200 (at 200 MHz), Bruker WH 300 (300 MHz), or Bruker AM 500 (500 MHz) spectrometers. Carbon nuclear magnetic resonance (δC) spectra were recorded on a Varian Gemini 200 (50 MHz) or a Bruker 250 (62.9 MHz) spectrometer. Multiplicities were assigned using DEPT sequence on the Gemini and by off resonance decoupling on the Bruker. Spectra run in D2 O were referenced to methanol as an internal standard. All chemical shifts are quoted on the δ-scale. Infrared spectra were recorded on a Perkin-Elmer 297, or on a Perkin-Elmer 781 spectrophotometer. Mass spectra were recorded on VG Micromass 30F, ZAB lF, Masslab 20-250 or Trio-1 GCMS (DB-5 column) spectrometers using desorption chemical ionization (NH3 DCI), electron impact (EI), chemical ionization (NH3 CI) and fast atom bombardment (FAB) techniques, as stated. […] Concentrations were given in g/100 ml. Hydrogenations were run under an atmosphere of hydrogen gas maintained by inflated balloon. Microanalyses were performed by the microanalysis service of the DysonPerrins laboratory, Oxford UK. Thin layer chromatography (t.l.c.) was carried out on aluminum sheets coated with 60F254 silica. Plates were developed using either 5% v/v concentrated sulphuric acid in methanol, 0.2% w/v cerium (IV) sulphate and 5% ammonium molybdate in 2M sulphuric acid and 0.5% ninhydrin in methanol. Flash chromatography was carried out using Sorbsil C60 40/60 silica. Ion-exchange chromatography was performed using Dowex 50W-X8 (H) and Sigma CG 400 (Cl) resins. The resins were washed with 2M hydrochloric acid and 2M sodium hydroxide solution, respectively, and subsequently with distilled water, prior to use. Solvents and commercially available reagents were dried and purified before use according to standard procedures; dichloromethane was refluxed over and distilled from calcium hydride, N,N-dimethylformamide was distilled under reduced pressure from calcium hydride, methanol was distilled from magnesium methoxide, pyridine was distilled from, and stored over, potassium hydroxide and tetrahydrofuran was distilled from a purple solution of sodium benzophenone ketyl immediately before use. Hexane was distilled at 68° C. before use to remove involatile fractions. 2,3-O-Isopropylidene-L-gulono-1,4-lactone (9) [H. Ogura et al., J. Oro. Chem. 37, 72 (1972); G. W. J. Fleet Tetrahedron 45, 319 (1989)]and 2,3-O-isopropylidene-D-gulono-1,4-lactone (15) [L. M. Lerner et al., J. Org. Chem. 33, 1780 (1968)]were prepared from D- and L-Chem. gulonolactones [purchased from the Sigma Chemical Company] as reported previously. See, e.g., Fleet, U.S. Pat. No. 4,861,892. Human liver glycosidases were assayed in the absence and presence [1 mM] of each of the compounds using the appropriate buffered 4-methylumbellifeeryl-glycosides as substrates, as described previously. [B. Winchest et al., Biochem. J. 265, 277 (1990)]. Naringinase was assayed using pnitrophenyl α-L-rhamnoside (1.75 mM) as substrates, according to Romero [C. Romero et al., Anal. Biochem. 149, 566 (1985)].
(§2) The enzymes included human liver glycosidases and naringinase. The latter enzyme is a readily available endo-L-rhamnosidase described by Romero et al., Anal. Biochem. 149, 566 (1985).

Lysosomal α-mannosidase = target: T2, Lysosomal α-mannosidase (Homo sapiens, UniProt O00754); test: Human liver glycosidase assay, lysosomal α-mannosidase; design: human liver extracts; from tissue; host or cells: human liver extracts; settings: for inhibition at 1000 µM: 1 mM compound, 4-methylumbelliferyl-glycoside substrate; for inhibition at 1000 µM / IC50: human liver; for IC50: read-out: I50, lysosomal α-mannosidase
T2 sequence (O00754 50-1011): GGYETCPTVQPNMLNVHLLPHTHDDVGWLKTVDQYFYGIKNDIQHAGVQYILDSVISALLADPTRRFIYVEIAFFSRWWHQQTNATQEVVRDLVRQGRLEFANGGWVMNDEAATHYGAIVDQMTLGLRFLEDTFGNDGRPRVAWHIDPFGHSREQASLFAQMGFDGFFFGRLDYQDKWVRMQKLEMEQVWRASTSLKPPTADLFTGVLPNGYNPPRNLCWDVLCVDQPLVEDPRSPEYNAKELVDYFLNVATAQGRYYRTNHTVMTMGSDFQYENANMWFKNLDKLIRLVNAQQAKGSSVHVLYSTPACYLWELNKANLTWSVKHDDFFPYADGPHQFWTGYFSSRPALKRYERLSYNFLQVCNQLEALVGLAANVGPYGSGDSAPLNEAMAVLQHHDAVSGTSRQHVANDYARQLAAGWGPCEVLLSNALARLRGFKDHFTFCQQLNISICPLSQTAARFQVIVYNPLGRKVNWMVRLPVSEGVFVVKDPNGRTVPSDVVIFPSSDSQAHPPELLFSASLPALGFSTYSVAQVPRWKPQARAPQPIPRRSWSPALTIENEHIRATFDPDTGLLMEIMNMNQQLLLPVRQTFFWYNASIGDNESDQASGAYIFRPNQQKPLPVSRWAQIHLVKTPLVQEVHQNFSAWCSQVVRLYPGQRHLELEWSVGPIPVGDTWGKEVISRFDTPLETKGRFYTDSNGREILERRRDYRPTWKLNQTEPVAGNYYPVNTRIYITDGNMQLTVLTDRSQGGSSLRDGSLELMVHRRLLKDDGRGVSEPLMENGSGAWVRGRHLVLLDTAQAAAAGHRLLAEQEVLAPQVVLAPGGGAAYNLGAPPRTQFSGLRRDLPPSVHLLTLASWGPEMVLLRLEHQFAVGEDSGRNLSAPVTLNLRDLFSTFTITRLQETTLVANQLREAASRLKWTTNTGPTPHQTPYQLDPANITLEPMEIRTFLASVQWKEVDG
Protocol: as §1, §2

[1] = test system: α-rhamnosidase (naringinase); test: Naringinase assay with p-nitrophenyl α-L-rhamnoside; settings: for Inhibition (%) at 1 mM, α-rhamnosidase (naringinase): 1 mM compound, p-nitrophenyl α-L-rhamnoside 1.75 mM
Protocol: as §1, §2

Row | Inhibition of α-fucosidase (in words) (Lysosomal α-fucosidase) | inhibition at 1000 µM (Lysosomal α-fucosidase) [%] | inhibition at 1000 µM (Lysosomal α-mannosidase) [%] | Inhibition of α-rhamnosidase (in words) [1] | Inhibition (%) at 1 mM, α-rhamnosidase (naringinase) [1] [%] | Structure (SMILES) | IC50 (Lysosomal α-mannosidase) [µM] | Inhibition of α-mannosidase (in words) (Lysosomal α-mannosidase; listed as D-rhamnono-1,5-lactone)
1 | does not show any significant inhibition | 0 | 86 | not of α-rhamnosidase | 3 | C[C@H]1NC(=O)[C@@H](O)[C@@H](O)[C@@H]1O [D-Rhamno-1,5-lactam (6), 6-Deoxy-D-mannono-δ-lactam] | 100 | inhibitor of α- and β-mannosidases; also recorded: better inhibitor of α-mannosidase than deoxymannojirimycin (1)
2 | – | 0 | 0 | no inhibitory activity | 0 | C[C@@H]1NC(=O)[C@H](O)[C@H](O)[C@H]1O [L-Rhamno-1,5-lactam (8), 6-Deoxy-L-mannono-δ-lactam] | – | –

Row | Structure (SMILES) | Inhibition of α-fucosidase (in words) (Lysosomal α-fucosidase) | inhibition at 1000 µM (Lysosomal α-fucosidase) [%] | inhibition at 1000 µM (Lysosomal α-mannosidase) [%] | Inhibition of α-rhamnosidase (in words) [1] | Inhibition (%) at 1 mM, α-rhamnosidase (naringinase) [1] [%] | IC50 (Lysosomal α-mannosidase) [µM] | Inhibition of α-mannosidase (in words) (Lysosomal α-mannosidase; listed as D-rhamnono-1,5-lactone)
3 | O=C1N[C@H](CO)[C@@H](O)[C@H](O)[C@@H]1O [Mannono-1,5-lactam (2), D-mannonolactam] | – | 0 | 94 | – | 12 | 50 | –
